Data from patent publication US20210322443A1 (MAPREG, priority 2015, published 2021).

What was measured:
Dopaminergic D1 = Dopaminergic D1 (Homo sapiens, UniProt P21728); experiment: CNS receptor binding assay; settings: read-out: % Inhibition of control specific binding
[1] = target: Muscarinic (Cholinergic) M2 (Homo sapiens, UniProt P08172); experiment: CNS receptor binding assay; settings: [3H] AF-DX 384, Human recombinant (CHO cells), read-out: % Inhibition of control specific binding
[2] = target: Muscarinic (Cholinergic) M5 (Homo sapiens, UniProt P08912); experiment: CNS receptor binding assay; settings: [3H] 4-DAMP, Human recombinant (CHO cells), read-out: % Inhibition of control specific binding
Muscarinic (Cholinergic) M5, sequence (P08912 whole entry): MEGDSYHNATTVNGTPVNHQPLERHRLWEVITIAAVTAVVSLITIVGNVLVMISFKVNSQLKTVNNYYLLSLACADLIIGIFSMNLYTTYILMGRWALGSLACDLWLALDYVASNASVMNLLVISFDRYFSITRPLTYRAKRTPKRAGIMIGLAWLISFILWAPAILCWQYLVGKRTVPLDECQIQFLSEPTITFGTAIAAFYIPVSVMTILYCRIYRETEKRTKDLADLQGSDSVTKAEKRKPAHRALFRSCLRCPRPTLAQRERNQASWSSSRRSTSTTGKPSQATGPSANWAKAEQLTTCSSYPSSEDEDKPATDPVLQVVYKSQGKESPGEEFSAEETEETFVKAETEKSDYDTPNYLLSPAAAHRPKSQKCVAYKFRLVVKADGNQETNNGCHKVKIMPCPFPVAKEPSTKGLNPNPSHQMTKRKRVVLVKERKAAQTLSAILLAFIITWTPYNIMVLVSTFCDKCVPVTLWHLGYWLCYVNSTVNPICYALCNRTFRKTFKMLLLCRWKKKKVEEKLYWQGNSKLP

Serotoninergic 5-HT2C = Serotoninergic 5-HT2C (Homo sapiens, UniProt P28335); experiment: CNS receptor binding assay; settings: read-out: % Inhibition of control specific binding
Serotoninergic 5-HT2C, sequence (P28335 33-458): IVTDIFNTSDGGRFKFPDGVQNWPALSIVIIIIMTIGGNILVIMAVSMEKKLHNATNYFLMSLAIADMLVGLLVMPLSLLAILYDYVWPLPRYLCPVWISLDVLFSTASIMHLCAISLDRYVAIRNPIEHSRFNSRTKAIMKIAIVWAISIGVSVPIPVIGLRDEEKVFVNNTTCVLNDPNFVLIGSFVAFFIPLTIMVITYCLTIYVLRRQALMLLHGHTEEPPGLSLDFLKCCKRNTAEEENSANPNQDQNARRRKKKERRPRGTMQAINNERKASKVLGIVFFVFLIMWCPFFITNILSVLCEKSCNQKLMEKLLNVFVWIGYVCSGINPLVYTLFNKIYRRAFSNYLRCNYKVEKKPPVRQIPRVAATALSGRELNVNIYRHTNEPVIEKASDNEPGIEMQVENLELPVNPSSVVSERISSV

Androgen Receptor (AR) = Androgen Receptor (AR) (Rattus norvegicus, UniProt P15207); experiment: Radioligand binding assay, steroid hormone receptors; settings: 1.5 nM [3H] Mibolerone, Rat recombinant E. coli, read-out: % inhibition of specific binding
Androgen Receptor (AR), sequence (P15207 whole entry S389L): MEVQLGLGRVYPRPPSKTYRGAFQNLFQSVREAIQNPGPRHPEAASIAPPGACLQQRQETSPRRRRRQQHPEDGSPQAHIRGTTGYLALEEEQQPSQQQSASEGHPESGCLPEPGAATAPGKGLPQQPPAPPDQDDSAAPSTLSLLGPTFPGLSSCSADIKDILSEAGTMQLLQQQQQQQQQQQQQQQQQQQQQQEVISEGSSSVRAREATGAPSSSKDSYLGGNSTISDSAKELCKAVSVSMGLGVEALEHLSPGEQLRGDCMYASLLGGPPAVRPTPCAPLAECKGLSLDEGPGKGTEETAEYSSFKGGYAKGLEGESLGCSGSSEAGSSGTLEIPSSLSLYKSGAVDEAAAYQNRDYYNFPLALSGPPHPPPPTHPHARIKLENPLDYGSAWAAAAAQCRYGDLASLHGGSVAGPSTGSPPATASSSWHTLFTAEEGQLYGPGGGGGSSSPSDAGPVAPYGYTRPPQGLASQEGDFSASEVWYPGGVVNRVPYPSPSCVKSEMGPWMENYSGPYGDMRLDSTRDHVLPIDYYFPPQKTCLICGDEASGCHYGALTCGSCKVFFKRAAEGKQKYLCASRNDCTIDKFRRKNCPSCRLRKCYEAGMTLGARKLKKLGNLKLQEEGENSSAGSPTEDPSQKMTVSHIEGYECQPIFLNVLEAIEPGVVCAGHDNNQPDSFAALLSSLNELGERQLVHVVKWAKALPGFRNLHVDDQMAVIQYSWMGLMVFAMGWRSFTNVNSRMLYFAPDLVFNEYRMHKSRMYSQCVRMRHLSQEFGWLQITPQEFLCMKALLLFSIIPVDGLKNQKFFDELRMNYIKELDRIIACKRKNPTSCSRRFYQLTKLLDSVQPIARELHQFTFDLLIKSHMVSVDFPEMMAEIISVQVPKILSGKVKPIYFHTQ
Protocol: Binding affinity of 3β-methoxy-PREG (MAP4343) for receptors of steroid hormones was evaluated using radioligand binding assays.

[3] = target: T1, human progesterone receptor(PR) (Homo sapiens, UniProt P06401); experiment: Progesterone receptor antagonist transactivation test (progesterone 1 nM) in transfected HEK293T cells; assay type: cell-based; settings: with progesterone 1 nM, increasing amounts, FIG. 2
T1 construct: expressed in transfected cells; host or cells: HEK293T
T1 sequence (P06401 1-933): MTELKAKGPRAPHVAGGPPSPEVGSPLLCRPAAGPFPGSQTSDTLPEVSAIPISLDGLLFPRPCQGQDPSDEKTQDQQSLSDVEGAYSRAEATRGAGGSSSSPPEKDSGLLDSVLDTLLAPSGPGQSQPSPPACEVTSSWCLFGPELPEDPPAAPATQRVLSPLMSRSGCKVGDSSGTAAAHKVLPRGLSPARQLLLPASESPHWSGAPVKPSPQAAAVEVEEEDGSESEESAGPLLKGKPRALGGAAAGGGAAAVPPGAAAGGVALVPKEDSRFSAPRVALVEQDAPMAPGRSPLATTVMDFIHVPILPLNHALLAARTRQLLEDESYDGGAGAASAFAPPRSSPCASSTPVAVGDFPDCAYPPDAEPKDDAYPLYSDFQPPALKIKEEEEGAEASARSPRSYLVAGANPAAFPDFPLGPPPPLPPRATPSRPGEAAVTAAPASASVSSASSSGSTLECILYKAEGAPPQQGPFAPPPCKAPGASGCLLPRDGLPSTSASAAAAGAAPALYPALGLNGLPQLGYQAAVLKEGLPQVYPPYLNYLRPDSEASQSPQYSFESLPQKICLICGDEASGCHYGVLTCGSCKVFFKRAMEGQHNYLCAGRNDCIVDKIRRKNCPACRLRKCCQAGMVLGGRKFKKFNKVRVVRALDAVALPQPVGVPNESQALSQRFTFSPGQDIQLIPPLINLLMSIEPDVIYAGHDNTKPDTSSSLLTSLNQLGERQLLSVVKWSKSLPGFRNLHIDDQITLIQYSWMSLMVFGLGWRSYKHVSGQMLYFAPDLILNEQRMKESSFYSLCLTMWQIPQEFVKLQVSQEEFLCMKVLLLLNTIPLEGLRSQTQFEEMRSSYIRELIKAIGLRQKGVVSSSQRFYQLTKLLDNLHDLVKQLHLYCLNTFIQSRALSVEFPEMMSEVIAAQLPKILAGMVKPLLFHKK
Protocol: The main experimental setting used is the following: HEK293T cells were transiently transfected, using calcium phosphate precipitation technology, with expression vectors pSG5hPR (which permits expression of human progesterone receptor(PR)), pFC31-luc (contains the luciferase gene under the control of the MMTV promoter, which is in turn activated by binding of a progestin to progesterone receptor) and pcbetagal (which permits expression of betagalactosidase), and cultured during 24 hours with increasing amounts of various compositions: • 1. […] Test of progesterone receptor […] activity: transfected cells were cultured with progesterone (1 nM) and increasing amounts of RU486 (a well-known progesterone receptor antagonist) or 3-methoxy-pregnenolone. • With this setting, a compound with progesterone receptor antagonist activity competes with progesterone for the occupation of progesterone receptor and results in a progressive loss of transactivation activity when the amount of this compound is increased compared to progesterone.

Noradrenergic α2 = experiment: CNS receptor binding assay; settings: 10 μM; [3H] RX 821002; rat cerebral cortex

Muscarinic (Cholinergic) M2, sequence (P08172 whole entry): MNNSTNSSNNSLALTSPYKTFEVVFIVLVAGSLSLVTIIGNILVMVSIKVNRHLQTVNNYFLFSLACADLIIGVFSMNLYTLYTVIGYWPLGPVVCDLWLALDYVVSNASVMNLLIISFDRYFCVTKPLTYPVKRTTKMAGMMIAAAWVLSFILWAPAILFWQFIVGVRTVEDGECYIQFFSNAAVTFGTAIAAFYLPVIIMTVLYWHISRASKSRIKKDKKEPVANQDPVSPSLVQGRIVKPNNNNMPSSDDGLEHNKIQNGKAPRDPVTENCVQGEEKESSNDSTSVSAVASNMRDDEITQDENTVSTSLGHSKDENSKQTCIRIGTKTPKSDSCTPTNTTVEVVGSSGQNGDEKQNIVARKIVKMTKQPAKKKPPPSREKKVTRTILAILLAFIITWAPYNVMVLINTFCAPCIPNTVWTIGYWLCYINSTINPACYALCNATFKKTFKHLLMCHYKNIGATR
Dopaminergic D1, sequence (P21728 whole entry): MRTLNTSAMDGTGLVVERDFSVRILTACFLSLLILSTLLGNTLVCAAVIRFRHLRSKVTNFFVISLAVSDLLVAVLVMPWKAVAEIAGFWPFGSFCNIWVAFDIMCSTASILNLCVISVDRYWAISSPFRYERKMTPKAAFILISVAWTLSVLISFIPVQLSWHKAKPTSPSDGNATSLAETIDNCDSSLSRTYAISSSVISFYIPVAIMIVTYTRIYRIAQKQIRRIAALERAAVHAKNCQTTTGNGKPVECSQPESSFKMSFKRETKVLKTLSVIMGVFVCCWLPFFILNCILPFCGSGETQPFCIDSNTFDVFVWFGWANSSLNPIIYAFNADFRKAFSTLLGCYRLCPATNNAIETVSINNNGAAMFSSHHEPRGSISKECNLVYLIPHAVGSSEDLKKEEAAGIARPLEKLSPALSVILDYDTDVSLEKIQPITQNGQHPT

CO[C@H]1CC[C@@]2(C)C(=CC[C@H]3[C@@H]4CC[C@H](C(C)=O)[C@@]4(C)CC[C@@H]32)C1 [MAP4343, 3β-methoxy-pregna-5-ene-20-one]
inhibition at 10 µM (Dopaminergic D1): 2%
inhibition at 10 µM [1]: 20%
inhibition at 10 µM [2]: 12%
inhibition at 10 µM (Serotoninergic 5-HT2C): 7%
inhibition at 10 µM (Androgen Receptor (AR)): < 25%
progesterone receptor antagonist activity [3]: weak progesterone receptor antagonist
% Inhibition of control specific binding (Noradrenergic α2): 7%
